Laboratory results reported in patent publication US20140135327A1, “N- (2 -AMINOPHENYL) BENZAMIDE DERIVATIVES AS HISTONE DEACETYLASE INHIBITORS” (CANCER RESEARCH TECHNOLOGY LIMITED, priority 2011, published 2014).

Assays:
Type in all cases: biochemical
HDAC 8 = biological target: T1, HDAC 8 (Homo sapiens, UniProt Q9BY41); assay: Fluorescence-based HDAC isoform assay with electrophoretic separation, HDAC 8; conditions: isolated 6×His-tagged isoform, 1 μM FAM-labeled acetylated peptide, 17 h at 25° C.
T1 construct: HDACs 1, 2, 3, 6, and 8 were expressed as full length fusion proteins; 6xHis; made in house; host or cells: Sf9 cells (baculovirus)
T1 sequence (Q9BY41 1-377): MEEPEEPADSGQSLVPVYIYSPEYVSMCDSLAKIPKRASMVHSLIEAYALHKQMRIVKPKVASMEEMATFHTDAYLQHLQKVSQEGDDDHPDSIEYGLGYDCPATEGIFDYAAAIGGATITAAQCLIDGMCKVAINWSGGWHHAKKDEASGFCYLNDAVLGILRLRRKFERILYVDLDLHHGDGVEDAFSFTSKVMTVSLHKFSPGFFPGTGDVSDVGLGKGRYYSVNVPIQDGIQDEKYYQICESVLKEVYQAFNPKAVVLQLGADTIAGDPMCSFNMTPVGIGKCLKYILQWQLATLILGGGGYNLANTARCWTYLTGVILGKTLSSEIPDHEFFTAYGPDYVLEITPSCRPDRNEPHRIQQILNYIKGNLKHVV
Description: (§1) The inhibitory effects of the compounds of Examples 7 and 9 above on HDAC activity were determined using a fluorescence-based assay with electrophoretic separation of substrate and product carried out using a microfluidic system followed by quantitation of fluorescence intensity in the substrate and product peaks.
(§2) The assays were performed using isolated HDAC isoforms that had been expressed as 6×His-tagged fusion proteins in a baculovirus expression system in Sf9 cells. HDACs 1, 2, 3, 6, and 8 were expressed as full length fusion proteins. For HDAC-4 and 7 only catalytic domains were expressed (HDAC-4 CAT and HDAC-7 CAT). The HDAC10 fusion protein was expressed as a carboxy-terminal deletion of 38 amino acids (residues 632-669). HDAC3 was coexpressed with a fragment of the SMRT gene (residues 395-489) to generate enzymatically active protein. Purified proteins were incubated with 1 μM carboxyfluorescein (FAM)-labeled acetylated peptide substrate and test compound for 17 h at 25° C. in HDAC assay buffer containing 100 mM HEPES (pH 7.5), 25 mM KCl, 0.1% BSA, and 0.01% Triton X-100. […] Substrate and product were separated electrophoretically using a Caliper LabChip 3000 system with blue laser excitation and green fluorescence detection (CCD2). The fluorescence intensity in the substrate and product peaks was determined using the Well Analyzer software on the Caliper system. […]

HDAC 6 = biological target: T2, HDAC 6 (Homo sapiens, UniProt Q9UBN7); assay: Fluorescence-based HDAC isoform assay with electrophoretic separation, HDAC 6; conditions: isolated 6×His-tagged isoform, 1 μM FAM-labeled acetylated peptide, 17 h at 25° C.
T2 sequence (Q9UBN7 1-1215): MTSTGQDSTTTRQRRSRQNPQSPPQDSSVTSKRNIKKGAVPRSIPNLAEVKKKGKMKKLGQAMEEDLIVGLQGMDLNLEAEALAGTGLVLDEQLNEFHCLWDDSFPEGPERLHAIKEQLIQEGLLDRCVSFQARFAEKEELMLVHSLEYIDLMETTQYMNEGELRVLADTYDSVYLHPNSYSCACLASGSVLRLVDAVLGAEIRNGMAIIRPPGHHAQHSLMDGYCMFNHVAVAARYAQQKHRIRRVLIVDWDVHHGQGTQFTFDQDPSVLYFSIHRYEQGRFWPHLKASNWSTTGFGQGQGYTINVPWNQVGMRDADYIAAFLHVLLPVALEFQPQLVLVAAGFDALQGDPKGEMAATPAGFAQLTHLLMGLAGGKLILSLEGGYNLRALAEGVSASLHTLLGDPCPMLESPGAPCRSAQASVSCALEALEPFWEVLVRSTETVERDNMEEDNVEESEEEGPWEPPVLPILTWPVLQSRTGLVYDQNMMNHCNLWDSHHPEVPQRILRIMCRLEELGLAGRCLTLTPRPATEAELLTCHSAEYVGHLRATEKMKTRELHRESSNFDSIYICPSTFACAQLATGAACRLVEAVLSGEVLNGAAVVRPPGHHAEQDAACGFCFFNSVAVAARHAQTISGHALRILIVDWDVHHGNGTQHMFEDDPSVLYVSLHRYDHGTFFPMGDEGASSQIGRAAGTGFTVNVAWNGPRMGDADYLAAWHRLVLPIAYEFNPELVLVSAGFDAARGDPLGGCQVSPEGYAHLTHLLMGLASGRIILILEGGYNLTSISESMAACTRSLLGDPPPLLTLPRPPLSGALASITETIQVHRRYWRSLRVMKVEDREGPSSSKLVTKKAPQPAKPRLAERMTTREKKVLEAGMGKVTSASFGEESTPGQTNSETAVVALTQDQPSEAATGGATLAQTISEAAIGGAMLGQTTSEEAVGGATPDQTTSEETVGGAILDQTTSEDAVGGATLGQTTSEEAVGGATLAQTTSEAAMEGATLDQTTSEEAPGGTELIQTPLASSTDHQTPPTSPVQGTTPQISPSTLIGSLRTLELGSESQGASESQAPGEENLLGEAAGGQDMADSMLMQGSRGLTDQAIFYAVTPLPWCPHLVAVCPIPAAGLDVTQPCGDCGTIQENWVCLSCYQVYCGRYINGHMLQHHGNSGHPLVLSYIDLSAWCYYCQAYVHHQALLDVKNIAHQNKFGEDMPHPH
Description: as §1, §2

HDAC 7-CAT = biological target: T3, HDAC 7-CAT (Homo sapiens, UniProt Q8WUI4); assay: Fluorescence-based HDAC isoform assay with electrophoretic separation, HDAC 7-CAT; conditions: catalytic domain only, 1 μM FAM-labeled acetylated peptide, 17 h at 25° C.
T3 construct: For HDAC-4 and 7 only catalytic domains were expressed (HDAC-4 CAT and HDAC-7 CAT); 6xHis; made in house; host or cells: Sf9 cells (baculovirus)
T3 sequence (Q8WUI4 512-865 limits assumed): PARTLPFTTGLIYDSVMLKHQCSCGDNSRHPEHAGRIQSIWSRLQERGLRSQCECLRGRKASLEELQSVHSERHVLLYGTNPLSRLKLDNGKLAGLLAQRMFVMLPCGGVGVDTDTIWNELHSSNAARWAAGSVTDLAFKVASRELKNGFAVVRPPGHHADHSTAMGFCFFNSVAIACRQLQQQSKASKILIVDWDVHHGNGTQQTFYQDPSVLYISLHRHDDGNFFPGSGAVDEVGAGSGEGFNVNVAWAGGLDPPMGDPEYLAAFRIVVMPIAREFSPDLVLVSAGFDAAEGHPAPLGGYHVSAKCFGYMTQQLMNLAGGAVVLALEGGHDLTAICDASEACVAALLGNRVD
Description: as §1, §2

| IC50 (HDAC 8) [µM] | IC50 (HDAC 6) [µM] | IC50 (HDAC 7-CAT) [µM] | SMILES |
| --- | --- | --- | --- |
| > 30 | > 30 | 7.53 | C=C1CN(Cc2ccc(C(=O)Nc3ccccc3N)cc2)C(=O)c2ccccc21 [Example 7, N-(2-Aminophenyl)-4-[(4-methylene-1-oxo-3,4-dihydroisoquino-2(1H)-yl)methyl]benzamide] |
| > 30 | > 30 | > 30 | C=C1CN(Cc2ccc(C(=O)Nc3ccccc3N)cc2)C(CC(=O)O)c2ccccc21 (stereo not drawn) [Example 9, [2-(4-{[(2-Aminophenyl)amino]carbonyl}benzyl)-4-methylene-1,2,3,4-tetra hydroisoquinolin-1-yl]acetic acid] |
